In paper PMC5259791 (Scientific Reports, 2017):

Experiments:
HT-29 cells = assay: HT-29 cell growth (cell counting)
Procedure: Data are the mean ± SD of three independent experiments performed in duplicate giving similar results. Significance is indicated as *p ≤ 0.05, **p ≤ 0.01 and ***p ≤ 0.001. (b) HT29 cells were seeded in 24-well in order to reach the density of cells/cm^2 in standard conditions (10^5 cells). […] The experiments were performed in triplicate and the data expressed as mean ± SD. Significance is indicated as **p ≤ 0.01 and ***p ≤ 0.001.

Hsp60 = target: T1, Hsp60 (Homo sapiens, UniProt P10809); assay: MS-based peptide mapping of Hsp60 incubated with 1; details: trypsin digestion, LC-MS/MS
T1 construct: purchased Tebu-Bio
Procedure: PPARγ-LBD and Hsp60 were incubated with a 2:1 molar excess of 1 under stirring for 15 min in PBS at 37 °C. Eluted proteins were loaded on a mono-dimensional 12% SDS-PAGE, stained with Brilliant Blue G-Colloidal, reduced, and digested by trypsin. The resulting fragments were extracted and analyzed by LC-MS/MS using the same instrument and protocol described before. Peptide identification was performed by MS and MS/MS data using Mascot (Matrix Science) to interrogate the Swiss Prot non-redundant protein database.

wild-type PPARγ1 = target: T2, wild-type PPARγ1 (Homo sapiens, UniProt P37231); assay: PPRE-luciferase transactivation in HEK293T cells co-transfected with wild-type PPARγ1; assay type: cell-based; details: wild type receptor, 24 h
T2 construct: expressed in transfected cells; host or cells: HEK293T (transient); vectors from Takuma Shiraki
T2 sequence (P37231 1-477 isoform P37231-2): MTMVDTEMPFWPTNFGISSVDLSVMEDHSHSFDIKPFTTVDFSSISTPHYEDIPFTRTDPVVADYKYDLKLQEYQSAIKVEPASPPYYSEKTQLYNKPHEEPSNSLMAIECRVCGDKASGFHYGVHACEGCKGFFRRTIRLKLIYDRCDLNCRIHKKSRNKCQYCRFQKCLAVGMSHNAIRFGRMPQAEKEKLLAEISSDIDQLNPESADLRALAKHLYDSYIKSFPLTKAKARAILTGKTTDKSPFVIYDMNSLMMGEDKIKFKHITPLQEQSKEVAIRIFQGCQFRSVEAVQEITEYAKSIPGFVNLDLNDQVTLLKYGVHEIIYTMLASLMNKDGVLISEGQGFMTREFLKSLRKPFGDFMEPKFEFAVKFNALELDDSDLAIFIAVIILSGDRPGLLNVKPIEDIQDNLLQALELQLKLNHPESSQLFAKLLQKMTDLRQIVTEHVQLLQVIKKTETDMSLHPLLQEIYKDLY
Excerpt: Luciferase activity is reported as fold-induction after normalization to β-galactosidase activity used as control for transfection efficiency. […] (b) Human HEK293T cells were co-transfected with the PPRE-luciferase reporter gene and the wild-type PPARγ1 or its mutant version (C285A). […] Luciferase activity is reported as fold-induction after normalization to β-galactosidase activity used as control for transfection efficiency.
To this goal we transiently transfected basal HEK293T cells with the PPRE-TK-luciferase-reporter plasmid along with the expression vector for the wild-type PPARγ1 or the mutant version carrying the C285A substitution.
HEK293 cells that stably express an exogenous Flag-tagged PPARγ from a transfected PCDNA-3 vector carrying a complete PPARγ cDNA were used for transfection experiments. The PPRE-Luc plasmid contains a luciferase reporter gene under the transcriptional control of three copies of the PPRE (Peroxisome Proliferator Response Element) derived from Acyl-CoA oxidase gene fused upstream to the herpes simplex thymidine kinase (TK) promoter, as described. The RSV-βGal plasmid, expressing β-galactosidase gene, driven by the strong Rous Sarcoma Virus (RSV) promoter/cassette was used as an internal control for transfection efficiency. Transient transfection assays were carried out as described in ref. [44]. […]

HT29 cells = assay: Western blot of proliferation/apoptosis markers in HT29 cells; assay type: cell-based
Excerpt: In addition, the expression of two components of the apoptotic pathway, such as caspase 3 and its substrate Poly (ADP-ribose) polymerase (PARP), was affected resulting in a reduction of the pro-caspase 3 precursor and an increase of the PARP cleaved form. Pre-treatment with GW9662 counteracted both the effects (Fig. 7b,c).
The graphs in (a–c) represent the mean ± SD of the protein/β-actin ratio from two independent experiments for p21^waf1/cip1, Caspase-3 precursor and cleaved PARP proteins, respectively. The graph in (d) represents the mean ± SD of pAKT/AKT ratio from two independent experiments.
Treated and untreated cells were lysed in Ripa buffer (150 mM NaCl, 50 mM Tris-HCl, pH 7.6, 10 mM EDTA, 1% NP-40) containing also a protease inhibitors cocktail and then centrifugated at 17,000 RCF for 10 min, at 4 °C. Supernatant containing total proteins was quantified and 80 μg of each sample were separated on 12% SDS-PAGE. Western blotting assays were carried out] Protein extracts from treated and untreated cells were obtained, quantified and analyzed by Western blot as reported.

PPARγ1 = target: T3, PPARγ1 (Homo sapiens, UniProt P37231); assay: PPRE-luciferase transactivation in HEK293 cells stably expressing exogenous PPARγ; assay type: cell-based
T3 construct: from a transfected PCDNA-3 vector carrying a complete PPARγ cDNA; expressed in transfected cells
T3 sequence (P37231 1-477 isoform P37231-2): T2 sequence (P37231 1-477 isoform P37231-2)
Excerpt: These cells were selected as they express a fixed and known amount of PPARγ, so that the differences in luciferase activity can be ascribed to the different ligand used. […] (b) Human HEK293T cells were co-transfected with the PPRE-luciferase reporter gene and the wild-type PPARγ1 or its mutant version (C285A).
HEK293 cells that stably express an exogenous Flag-tagged PPARγ from a transfected PCDNA-3 vector carrying a complete PPARγ cDNA were used for transfection experiments. The PPRE-Luc plasmid contains a luciferase reporter gene under the transcriptional control of three copies of the PPRE (Peroxisome Proliferator Response Element) derived from Acyl-CoA oxidase gene fused upstream to the herpes simplex thymidine kinase (TK) promoter, as described. […] Transient transfection assays were carried out as described in ref. [44]. […] In this case, the experiments were carried out into basal HEK293T cells and the RSV-β-Gal plasmid was used as control for transfection efficiency. […] The wild type and mutant PPARγ containing expression vectors were kindly provided by Dott. Takuma Shiraki. At least three independent experiments were performed for each transfection carried out in duplicate. Luciferase activity was normalized to β-galactosidase activity and reported as fold-induction.

[1] = exposure for 6 h, compound alone

T1 sequence (P10809 27-573): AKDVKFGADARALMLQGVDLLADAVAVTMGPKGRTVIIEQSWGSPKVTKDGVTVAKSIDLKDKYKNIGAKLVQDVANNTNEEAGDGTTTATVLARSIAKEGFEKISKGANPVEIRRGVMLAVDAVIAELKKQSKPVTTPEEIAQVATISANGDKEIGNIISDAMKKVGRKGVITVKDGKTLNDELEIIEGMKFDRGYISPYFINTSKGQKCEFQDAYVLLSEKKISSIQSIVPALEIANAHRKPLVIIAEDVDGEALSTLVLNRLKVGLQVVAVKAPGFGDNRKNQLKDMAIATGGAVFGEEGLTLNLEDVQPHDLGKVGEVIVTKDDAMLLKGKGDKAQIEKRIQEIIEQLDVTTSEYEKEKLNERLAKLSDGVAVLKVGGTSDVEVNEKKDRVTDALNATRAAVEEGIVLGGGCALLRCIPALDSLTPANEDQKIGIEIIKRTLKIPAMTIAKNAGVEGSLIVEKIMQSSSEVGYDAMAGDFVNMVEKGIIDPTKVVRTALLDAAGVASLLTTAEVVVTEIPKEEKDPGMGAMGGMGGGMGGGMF

For `C=C1C(=O)C23CCC4C(C(=O)OC)CC(O)CC4(C)C2CCC1C3` (stereo not drawn) [Compound 1, 15-ketoatractyligenin methyl ester], the “inhibition of cell growth” value (HT-29 cells; 1, 5 and 10 μM for 24 and 48 h) was “more pronounced dosage-dependent inhibition of cell growth than Rosiglitazone”, the “cell counts after GW9662 pre-treatment versus compound alone” value (HT-29 cells; GW9662 10 μM 6 h, then compound 10 μM for 24 and 48 h) was “increased cell counts” and the “covalent modification of Hsp60” value (Hsp60) was “no peptide covalently modified”. The “luciferase activity less than Rosiglitazone” value (wild-type PPARγ1) was 40%, the “p21^waf1/cip1 levels” value (HT29 cells; [1]) was “sharply increased” and the p-AKT levels (HT29 cells; [1]) was “robust reduction”. For the same molecule, the PARP cleaved form (HT29 cells; exposure for 48 h) was “increase”, the “pro-caspase 3 precursor expression” value (HT29 cells; exposure for 48 h) was “reduction” and the “effect of detergent on transactivation activity profile” value (PPARγ1; 0.001% Tween 20 in the medium) was “not find any variation in the bell-shaped activity profile”. For the same molecule, the “concentration at peak of luciferase activity” value (PPARγ1; 24 h treatment, HEK293 stably expressing PPARγ) was 1 µM, the “transactivation activity lower than Rosiglitazone” value (PPARγ1; 24 h treatment, relative to Rosiglitazone) was “about 40%” and the “type of PPARγ agonism” value (PPARγ1; transactivation assay) was “partial agonist”.
